# Measurements reported in patent publication US4575496A, “Erythromycin salt of the o-carbonyl(1-thiazolidinyl)-benzoic acid and pharmaceutical compositions containing it” (Camillo Corvi S.p.A., priority 1983, dated 1986).
# Where “and” joins values, the source holds several entries; their conditions need not be identical. Equal entries are not always repeated. Where two headings read alike, the source gives them in different places.
# Legend:
# Staph. epiderm. clin. [1] = assay: Antimicrobic activity, in vitro (CIM), first clinical isolate; format: cell-based, Staph. epiderm. (isolated clinically)
# From the text: (§1) Chim.Farm.119, p.181, 1980.
# (§2) Antimicrobic activity, in vitro.
# (§3) CIM^(1) values (mcg/ml)
# (§4) ^(1) CIM = Mic = Minimal inhibitory concentration
# (§5) ^(2) Clin. = Isolated clinically.
# rat = assay: Oral acute toxicity in the rat; format: in vivo
# From the text: as §1
# (§6) Oral acute toxicity in the rat
# staphylococcus aureus [2] = system: staphylococcus aureus; set-up: unit not given beside the values; details: intramuscular
# From the text: In Table 4, the activity data relating to the mucus production in the rabbit is reported, according to the method by Scuri et al., published in Boll. Chim.Farm.119, p.181, 1980.
# rabbit mucoproduction = assay: Activity on the rabbit mucoproduction (method of Scuri et al.); format: in vivo
# From the text: as §1
# Activity on the rabbit mucoproduction.
# Micrococcus luteus 9341 = assay: Antimicrobic activity, in vitro (CIM); format: cell-based, Micrococcus luteus 9341 (ATCC); details: Micrococcus luteus 9341, in vitro
# From the text: as §1, §2, §3, §4
# (§7) ^(3) The 4digit strains are ATCC's
# Staph. epiderm. clin. [3] = assay: Antimicrobic activity, in vitro (CIM), second clinical isolate; format: cell-based, Staph. epiderm. (isolated clinically)
# From the text: as §1, §2, §3, §4, §5
# Candida albicans = assay: Antimicrobic activity, in vitro (CIM); format: cell-based
# From the text: as §1, §2, §3, §4
# Escherichia coli 418 = assay: Antimicrobic activity, in vitro (CIM); format: cell-based; details: Escherichia coli 418, in vitro
# From the text: as §1, §2, §3, §4
# Proteus vulgaris = assay: Antimicrobic activity, in vitro (CIM); format: cell-based
# From the text: as §1, §2, §3, §4
# Pseudomonas aeruginosa = assay: Antimicrobic activity, in vitro (CIM); format: cell-based
# From the text: as §1, §2, §3, §4
# Strept. faecalis 8043 = assay: Antimicrobic activity, in vitro (CIM); format: cell-based, Strept. faecalis 8043 (ATCC); details: Strept. faecalis 8043, in vitro
# From the text: as §1, §2, §3, §4, §7
# staphylococcus aureus [4] = system: staphylococcus aureus; set-up: unit not given beside the values; details: oral, 1 treatment
# Staph. aureus 1414 = assay: Antimicrobic activity, in vitro (CIM); format: cell-based, Staph. aureus 1414 (ATCC); details: Staph. aureus 1414, in vitro
# From the text: as §1, §2, §3, §4, §7
# Staph. aureus 6538 = assay: Antimicrobic activity, in vitro (CIM); format: cell-based, Staph. aureus 6538 (ATCC); details: Staph. aureus 6538, in vitro
# From the text: as §1, §2, §3, §4, §7
# Serr. marcescens cl. = assay: Antimicrobic activity, in vitro (CIM); format: cell-based, Serr. marcescens (isolated clinically)
# From the text: as §1, §2, §3, §4, §5
# [5] = Oral acute toxicity in the rat; format: in vivo; details: in vivo, rat, read-out: DL50 (the source's name)
# From the text: as §1, §6
# [6] = read-out: CIM (Mic, minimal inhibitory concentration)
# [7] = Staphylococcus aureus, read-out: CIM (Mic, minimal inhibitory concentration)
smiles,measurement,setting,value
"CC[C@H]1OC(=O)[C@H](C)[C@@H](O[C@H]2C[C@@](C)(OC)[C@@H](O)[C@H](C)O2)[C@H](C)[C@@H](O[C@@H]2O[C@H](C)C[C@H](N(C)C)[C@H]2O)[C@](C)(O)C[C@@H](C)C(=O)[C@H](C)[C@@H](O)[C@]1(C)O.O=C(O)c1ccccc1C(=O)N1CCSC1 [CO/1316, erythromycin salt of o-carbonyl(1-thiazolidinyl)-benzoic acid]","CIM (Mic, minimal inhibitory concentration)",Staph. epiderm. clin. [1],10 µg/mL
same,acute oral toxicity compared with erythromycin base,rat,substantially coincides with that of the erythromycin base
same,DL50,rat; rat,> 5.0 g/kg
same,DI50,"staphylococcus aureus [2]; medium infection, 5 treatments",76 and 152
same,DI50,"staphylococcus aureus [2]; serious infection, 1 treatment",210 and 390
same,Anim. with increase / Treated anim.,rabbit mucoproduction; 40 mg/kg ev,9/14
same,"Anim. with increase / Treated anim., %",rabbit mucoproduction; 40 mg/kg ev,64/2
same,Mucoproduction: Var. %,rabbit mucoproduction; 40 mg/kg ev,+45%
same,"CIM (Mic, minimal inhibitory concentration)",Micrococcus luteus 9341,0.1 µg/mL
same,"CIM (Mic, minimal inhibitory concentration)",Staph. epiderm. clin. [3],0.1 µg/mL
same,Solubility in 95% ethanol,95% ethanol,32%
same,Solubility in acetone,acetone,50%
same,Solubility in chloroform,chloroform,50%
same,Solubility in dioxane,dioxane,15%
same,Solubility in ethanol,ethanol,50%
same,Solubility in ethyl ether,ethyl ether,0.1%
same,Solubility in methanol,methanol,57%
same,Solubility in n-hexane,n-hexane,pratically insoluble
same,Solubility in toluene,toluene,0.3%
same,Solubility in water,"water, ambient temperature",3 % W/V
same,"CIM (Mic, minimal inhibitory concentration)",Candida albicans,100 µg/mL
same,"CIM (Mic, minimal inhibitory concentration)",Escherichia coli 418,50 µg/mL
same,"CIM (Mic, minimal inhibitory concentration)",Proteus vulgaris,5 µg/mL
same,"CIM (Mic, minimal inhibitory concentration)",Pseudomonas aeruginosa; in vitro,+100 mcg/ml
same,"CIM (Mic, minimal inhibitory concentration)",Strept. faecalis 8043,0.6 µg/mL
same,DI50,staphylococcus aureus [4]; medium infection,350 and 510
same,DI50,staphylococcus aureus [4]; serious infection,560 and 720
same,"CIM (Mic, minimal inhibitory concentration)",Staph. aureus 1414,10 µg/mL
same,"CIM (Mic, minimal inhibitory concentration)",Staph. aureus 6538,10 µg/mL
same,"CIM (Mic, minimal inhibitory concentration)",Serr. marcescens cl.,100 µg/mL
CC[C@H]1OC(=O)[C@H](C)[C@@H](O[C@H]2C[C@@](C)(OC)[C@@H](O)[C@H](C)O2)[C@H](C)[C@@H](O[C@@H]2O[C@H](C)C[C@H](N(C)C)[C@H]2O)[C@](C)(O)C[C@@H](C)C(=O)[C@H](C)[C@@H](O)[C@]1(C)O [Erythromycin],MIC,Staph. epiderm. clin. [1]; [6],10 µg/mL
same,LD50,[5],> 5000 mg/kg
same,Anim. with increase / Treated anim.,rabbit mucoproduction; 30 mg/kg ev,0/10
same,Mucoproduction: Var. %,rabbit mucoproduction; 30 mg/kg ev,Inactive
same,MIC,Micrococcus luteus 9341; [6],0.1 µg/mL
same,MIC,Staph. epiderm. clin. [3]; [6],0.1 µg/mL
same,MIC,Candida albicans; [6],100 µg/mL
same,MIC,Escherichia coli 418; [6],25 µg/mL
same,MIC,Proteus vulgaris; [6],2.5 µg/mL
same,MIC,Pseudomonas aeruginosa; [6],100 µg/mL
same,MIC,"Strept. faecalis 8043; Enterococcus faecalis, read-out: CIM (Mic, minimal inhibitory concentration)",0.3 µg/mL
same,MIC,Staph. aureus 1414; [7],10 µg/mL
same,MIC,Staph. aureus 6538; [7],10 µg/mL
same,MIC,"Serr. marcescens cl.; Serratia marcescens, read-out: CIM (Mic, minimal inhibitory concentration)",50 µg/mL
